From patent US20260035387A1 (BIOGEN MA INC., priority 2022, published 2026) come the findings set out here.

The test system of the assay is mutant Huntington (HTT) protein. Description: HTT Mutant HTRF iPSC assay (mHTT protein lowering). The assay is classed as cell-based. As to conditions: human iPSC derived from a HTT patient with a poly-Q49 mutation. Background: Time-resolved FRET reads energy transfer from a long-lived donor to a nearby acceptor.

SMILES strings stand for the structures.

Consider `COc1c(NC(=O)c2nc3ccc(N4CCC(N5CCC5)C4)nc3s2)cn2cc(C)nc2c1F` (racemic) [Compound 126, 5-(3-(azetidin-1-yl)pyrrolidin-1-yl)-N-(8-fluoro-7-methoxy-2-methylimidazo[1,2-a]pyridin-6-yl)thiazolo[5,4-b]pyridine-2-carboxamide], for which the half-maximal inhibitory concentration (IC50) was < 100 nM.

As to `Cc1cn2cc(NC(=O)c3cc4ncc(C5CCC(N)CC5)nc4s3)cc(F)c2n1` (racemic) [Compound 141, 3-(4-aminocyclohexyl)-N-(8-fluoro-2-methylimidazo[1,2-a]pyridin-6-yl)thieno[2,3-b]pyrazine-6-carboxamide], the IC50 lay within 1000 to 9000 nM.

`Cc1cn2cc(NC(=O)c3cc4ncc(C5=CCCC(N)C5)nc4s3)cc(F)c2n1` (racemic) [Compound 143, 3-(5-aminocyclohex-1-en-1-yl)-N-(8-fluoro-2-methylimidazo[1,2-a]pyridin-6-yl)thieno[2,3-b]pyrazine-6-carboxamide] showed an IC50 of 100 to 1000 nM.

On to `Cc1cn2cc(NC(=O)c3cc4ncc(C5=CC(N)CCC5)nc4s3)cc(F)c2n1` (racemic) [Compound 145, 3-(3-aminocyclohex-1-en-1-yl)-N-(8-fluoro-2-methylimidazo[1,2-a]pyridin-6-yl)thieno[2,3-b]pyrazine-6-carboxamide], for which the IC50 was in the range of 100 to 1000 nM.

Turning to `Cc1cn2cc(NC(=O)c3cc4ccc(OC5C[C@@H](C)N[C@@H](C)C5)nc4s3)cc(F)c2n1` (mixture of isomers) [Compound 156], the IC50 is < 100 nM.

Take `Cc1cn2cc(NC(=O)c3cc4ccc(OC5CCNC(C)(C)C5)nc4s3)cc(F)c2n1` (racemic) [Compound 158, 6-((2,2-dimethylpiperidin-4-yl)oxy)-N-(8-fluoro-2-methylimidazo[1,2-a]pyridin-6-yl)thieno[2,3-b]pyridine-2-carboxamide]: the IC50 is < 100 nM.

With `Cc1cn2cc(NC(=O)c3cc4ccc(OC5CCN(C)C5)nc4s3)cc(F)c2n1` (racemic) [Compound 159, N-(8-fluoro-2-methylimidazo[1,2-a]pyridin-6-yl)-6-((1-methylpyrrolidin-3-yl)oxy)thieno[2,3-b]pyridine-2-carboxamide], the IC50 is < 100 nM.

On to `CCN1CCC(Oc2ccc3cc(C(=O)Nc4cc(F)c5nc(C)cn5c4)sc3n2)C1` (racemic) [Compound 161, 6-((1-ethylpyrrolidin-3-yl)oxy)-N-(8-fluoro-2-methylimidazo[1,2-a]pyridin-6-yl)thieno[2,3-b]pyridine-2-carboxamide], for which the half-maximal inhibitory concentration (IC50) was < 100 nM.

With `COc1c(NC(=O)c2cc3ccc(N4CCC(N5CCC5)C4)nc3s2)cc2cn(C)nc2c1F` (racemic) [Compound 180, rac-(R)-6-(3-(azetidin-1-yl)pyrrolidin-1-yl)-N-(7-fluoro-6-methoxy-2-methyl-2H-indazol-5-yl)thieno[2,3-b]pyridine-2-carboxamide], the 50% inhibitory concentration (IC50) is < 100 nM.

In the case of `Cc1cn2cc(NC(=O)c3cc4ccc(N5CC[C@@H]6CN(C)C[C@@H]65)nc4s3)nc(C)c2n1` (racemic) [Compound 194, N-(2,8-dimethylimidazo[1,2-a]pyrazin-6-yl)-6-((3aR,6aR)-5-methylhexahydropyrrolo[3,4-b]pyrrol-1(2H)-yl)thieno[2,3-b]pyridine-2-carboxamide], the IC50 is < 100 nM.

On to `Cc1cn2cc(NC(=O)c3cc4ccc(N5CCC6CNCC65)nc4s3)nc(C)c2n1` (racemic) [Compound 215, N-(2,8-dimethylimidazo[1,2-a]pyrazin-6-yl)-6-(hexahydropyrrolo[3,4-b]pyrrol-1(2H)-yl)thieno[2,3-b]pyridine-2-carboxamide], for which the IC50 was < 100 nM.

Consider `COc1c(NC(=O)c2cc3ccc(N4CCC5(CCCN5C)C4)nc3s2)cc2cn(C)nc2c1F` (racemic) [Compound 231, N-(7-fluoro-6-methoxy-2-methyl-2H-indazol-5-yl)-6-(1-methyl-1,7-diazaspiro[4.4]nonan-7-yl)thieno[2,3-b]pyridine-2-carboxamide], for which the IC50 is < 100 nM.

As to `COc1cc2nn(C)cc2cc1NC(=O)c1cc2ccc(N[C@@H]3CC(C)(C)NC(C)(C)[C@@H]3F)nc2s1` (racemic) [Compound 260, 6-(((3R,4R)-3-fluoro-2,2,6,6-tetramethylpiperidin-4-yl)amino)-N-(6-methoxy-2-methyl-2H-indazol-5-yl)thieno[2,3-b]pyridine-2-carboxamide], the IC50 was < 100 nM.

Regarding `COc1cc2nn(C)cc2cc1NC(=O)c1cc2ccc(N[C@H]3CC(C)(C)NC(C)(C)[C@@H]3F)nc2s1` (racemic) [Compound 261, 6-(((3R,4S)-3-fluoro-2,2,6,6-tetramethylpiperidin-4-yl)amino)-N-(6-methoxy-2-methyl-2H-indazol-5-yl)thieno[2,3-b]pyridine-2-carboxamide], the IC50 was < 100 nM.

`Cc1cn2cc(NC(=O)c3cc4ccc([C@H]5CCCNC5)nc4s3)cc(F)c2n1` (single isomer, unassigned) [Compound 81]: the IC50 is < 100 nM.

As for `Cc1cn2cc(NC(=O)c3cc4ccc([C@@H]5CCCNC5)nc4s3)cc(F)c2n1` (single isomer, unassigned) [Compound 82], the 50% inhibitory concentration (IC50) is < 100 nM.

As to `Cc1cn2cc(NC(=O)c3nc4ccc(N5CCC6(CCN6)C5)nc4s3)cc(F)c2n1` (single isomer, unassigned) [Compound 97], the concentration for half-maximal inhibition (IC50) is < 100 nM.

As to `Cc1cn2cc(NC(=O)c3nc4ccc(N5CCC(N6CCC6)C5)nc4s3)cc(F)c2n1` (single isomer, unassigned) [Compound 101], the half-inhibitory concentration (IC50) is < 100 nM.

Consider `Cc1cn2cc(NC(=O)c3nc4ccc(N5CCC6(CCN6)C5)nc4s3)cc(F)c2n1` (single isomer, unassigned) [Compound 111], for which the IC50 was < 100 nM.

As to `COc1c(NC(=O)c2nc3ccc(N4CCC5(CCCN5C)C4)nc3s2)cc2cn(C)nc2c1F` (single isomer, unassigned) [Compound 124], the half-inhibitory concentration (IC50) is < 100 nM.

With `COc1c(NC(=O)c2nc3ccc(N4CCC5(CCCN5C)C4)nc3s2)cn2cc(C)nc2c1F` (single isomer, unassigned) [Compound 127], the IC50 was < 100 nM.

Turning to `COc1c(NC(=O)c2nc3ccc(N4CCC5(CCCN5C)C4)nc3s2)cn2cc(C)nc2c1F` (single isomer, unassigned) [Compound 128], the IC50 is < 100 nM.

Consider `COc1cc(NC(=O)c2cc3nc(N4CCC5(CCCN5C)C4)ccc3o2)cn2cc(C)nc12` (single isomer, unassigned) [Compound 174], for which the IC50 is < 100 nM.

`COc1cn2nc(C)cc2cc1NC(=O)c1cc2nc(N3CCC4(CCCN4C)C3)ccc2o1` (single isomer, unassigned) [Compound 175]: the 50% inhibitory concentration (IC50) was < 100 nM.

For the compound `COc1cc2nn(C)cc2cc1NC(=O)c1cc2ccc(C3CCN(C)C3)nc2s1` (single isomer, unassigned) [Compound 177], the IC50 is < 100 nM.

For the compound `Cc1cn2cc(NC(=O)c3cc4ccc(C5CCN(C)C5)nc4s3)cc(F)c2n1` (single isomer, unassigned) [Compound 181], the IC50 was < 100 nM.

On to `COc1cc2nn(C)cc2cc1NC(=O)c1cc2ccc(C3CCCN(C)C3)nc2s1` (single isomer, unassigned) [Compound 185], for which the IC50 was < 100 nM.

Turning to `COc1cc2nn(C)cc2cc1NC(=O)c1cc2ccc(C3CCCN(C)C3)nc2s1` (single isomer, unassigned) [Compound 186], the half-maximal inhibitory concentration (IC50) was < 100 nM.

In turn, `Cc1cn2cc(NC(=O)c3cc4ccc(C5CCCN(C)C5)nc4s3)nc(C)c2n1` (single isomer, unassigned) [Compound 187] had an IC50 of 100 to 1000 nM.

What is called IC50 is the midpoint of a concentration-inhibition curve. Higher therefore signals weaker potency in that assay.
